Measured values published in article PMC6686011, “Ruthenium(II) complexes with 6-methyl-2-thiouracil selectively reduce cell proliferation, cause DNA double-strand break and trigger caspase-mediated apoptosis through JNK/p38 pathways in human acute promyelocytic leukemia cells” (Scientific Reports, 2019).

Experiments:
any cells = assay: Cytotoxicity, alamar blue assay, whole cell panel; assay type: cell-based; settings: 72 h, not cytotoxic at concentrations tested
Method: (§1) Cytotoxicity was measured using alamar blue assay and was performed following the procedure that was described previously[21],[22]. Briefly, cells were inserted in 96-well plates and incubated overnight. Then, the complexes were dissolved in dimethyl sulfoxide (DMSO, LGC Biotechnology, São Paulo, SP, Brazil) and added to each well and incubated for 72 h. […] Before the end of treatment (4 h for cell lines and 24 h for PBMC), 20 μL of a stock solution (0.312 mg/mL) of alamar blue (resazurin, Sigma-Aldrich Co.) were added to each well. Absorbance at 570 nm and 600 nm was measured using SpectraMax 190 Microplate Reader (Molecular Devices, Sunnyvale, CA, USA).

B16-F10 (mouse melanoma) = assay: Cytotoxicity, alamar blue assay; assay type: cell-based; settings: for Selectivity index, B16-F10 versus MRC-5: SI = IC50[MRC-5]/IC50[B16-F10]; for Selectivity index, B16-F10 versus PBMC: SI = IC50[PBMC]/IC50[B16-F10]
Method: as §1

[1] = tested on: BAD KO SV40 MEF (immortalized mouse embryonic fibroblast with the BAD gene knocked out); assay: Cytotoxicity, alamar blue assay; assay type: cell-based; settings: 72 h, read-out: IC50, BAD KO SV40 MEF cell line
Method: as §1

[2] = tested on: HCT116 (human colon carcinoma); assay: Cytotoxicity, alamar blue assay; assay type: cell-based; settings: for Selectivity index, HCT116 versus MRC-5: SI = IC50[MRC-5]/IC50[HCT116]; for Selectivity index, HCT116 versus PBMC: SI = IC50[PBMC]/IC50[HCT116]
Method: as §1

[3] = tested on: HL-60 (human acute promyelocytic leukemia); assay: Cytotoxicity, alamar blue assay; assay type: cell-based; settings: for Selectivity index, HL-60 versus MRC-5: SI = IC50[MRC-5]/IC50[HL-60]; for Selectivity index, HL-60 versus PBMC: SI = IC50[PBMC]/IC50[HL-60]; for IC50: alamar blue, 72 h, read-out: IC50 and 95% CI, HL-60
Method: as §1

[4] = tested on: HSC-3 (human oral squamous cell carcinoma); assay: Cytotoxicity, alamar blue assay; assay type: cell-based; settings: for Selectivity index, HSC-3 versus MRC-5: SI = IC50[MRC-5]/IC50[HSC-3]; for Selectivity index, HSC-3 versus PBMC: SI = IC50[PBMC]/IC50[HSC-3]; for IC50: alamar blue, 72 h, read-out: IC50 and 95% CI, HSC-3
Method: as §1

[5] = tested on: HepG2 (human hepatocellular carcinoma); assay: Cytotoxicity, alamar blue assay; assay type: cell-based; settings: for Selectivity index, HepG2 versus MRC-5: SI = IC50[MRC-5]/IC50[HepG2]; for Selectivity index, HepG2 versus PBMC: SI = IC50[PBMC]/IC50[HepG2]
Method: as §1

[6] = tested on: K-562 (human chronic myelogenous leukemia); assay: Cytotoxicity, alamar blue assay; assay type: cell-based; settings: for Selectivity index, K-562 versus MRC-5: SI = IC50[MRC-5]/IC50[K-562]; for Selectivity index, K-562 versus PBMC: SI = IC50[PBMC]/IC50[K-562]
Method: as §1

[7] = tested on: MRC-5 (human lung fibroblast); assay: Cytotoxicity, alamar blue assay; assay type: cell-based; settings: non-cancer cells, 72 h, read-out: IC50 and 95% CI, MRC-5
Method: as §1

[8] = tested on: SCC-4 (human oral squamous cell carcinoma); assay: Cytotoxicity, alamar blue assay; assay type: cell-based; settings: for Selectivity index, SCC-4 versus MRC-5: SI = IC50[MRC-5]/IC50[SCC-4]; for Selectivity index, SCC-4 versus PBMC: SI = IC50[PBMC]/IC50[SCC-4]
Method: as §1

[9] = tested on: WT SV40 MEF (wild-type immortalized mouse embryonic fibroblasts); assay: Cytotoxicity, alamar blue assay; assay type: cell-based; settings: 72 h, read-out: IC50, WT SV40 MEF cell line
Method: as §1

[10] = tested on: PBMC (human peripheral blood mononuclear cells); assay: Cytotoxicity, alamar blue assay; assay type: cell-based; settings: non-cancer cells, 72 h, read-out: IC50 and 95% CI, PBMC
From the text: HL-60 (human acute promyelocytic leukemia), K-562 (human chronic myelogenous leukemia), HCT116 (human colon carcinoma), HepG2 (human hepatocellular carcinoma), HSC-3 (human oral squamous cell carcinoma), SCC-9 (human oral squamous cell carcinoma), B16-F10 (mouse melanoma), MRC-5 (human lung fibroblast), WT SV40 MEF (wild-type immortalized mouse embryonic fibroblast) and BAD KO SV40 MEF (BAD gene knockout immortalized mouse embryonic fibroblast) cell lines were obtained from American Type Culture Collection (ATCC, Manassas, VA, USA). Human peripheral blood mononuclear cells (PBMC) were isolated using standard Ficoll density gradient from heparinized blood collected from 20- to 35-year-old, non-smoker healthy donors with informed consent (number 031019/2013) approved by Human Ethics Committee of Gonçalo Moniz Institute from Oswaldo Cruz Foundation (IGM-FIOCRUZ/BA), and all experiments were performed in accordance with relevant guidelines and regulations. Cells were cultured as recommended by ATCC guidelines and a mycoplasma stain kit (Sigma-Aldrich) was used to validate the use of cells free from contamination. Cell viability in all experiments was examined using the trypan blue exclusion (TBE) assay. Over 90% of the cells were viable at the beginning of the culture.
as §1

HL-60 cells [11] = assay: Trypan blue exclusion assay; assay type: cell-based, human
Method: The number of viable cells and non-viable (take up trypan blue) were counted by TBE method. Shortly, 90 μL was removed from the cell suspension and 10 μL of trypan blue (0.4%) was added. Cell counting was performed using a light microscope with a neubauer chamber.

HL-60 cells [12] = assay: Apoptosis quantification, annexin V-FITC/PI flow cytometry; assay type: cell-based, human
Method: Shortly, cells were washed twice with saline solution and resuspended in 100 μL of binding buffer plus 5 μL of propidium iodide (PI) and 5 μL of FITC Annexin V. Then, cells were gently mixed by vortexing and incubated for 15 min at room temperature in the dark. Finally, 400 μL of binding buffer was added to each tube, and the cell fluorescence was determined by flow cytometry, as described above. Percentage of viable, early apoptotic, late apoptotic and necrotic cells were measured. […] Cells were then analyzed by FITC Annexin V Apoptosis Detection assay as described above.

HL-60 cell xenografts = assay: Human myeloid leukemia xenograft model; assay type: in vivo, C.B-17 SCID mice
Method: Fifty six specific-pathogen-free (SPF) C.B-17 severe combined immunodeficient (SCID) mice (females, 23–26 g) were used in this study. The animals were obtained and maintained at animal facilities from Gonçalo Moniz Institute-FIOCRUZ (Salvador, Bahia, Brazil), and housed in cages with free access to food and water, and kept under a 12:12 h light-dark cycle (lights on at 6:00 a.m.). The animals were treated according to ethical principles for animal experimentation of SBCAL (Brazilian Association of Laboratory Animal Science), Brazil. Experimental protocol have been approved (number 06/2015) by Animal Ethics Committee of Gonçalo Moniz Institute-FIOCRUZ (Salvador, Bahia, Brazil).
Human myeloid leukemia xenograft model was carry out as described previously by Rodrigues et al.[26] with minor modifications. HL-60 cells (2.5 × 10^7 cells/500 µL) were implanted subcutaneously into the left front armpit of the mice. […] When the tumors reached 100 to 200 mm^3 (22 days after HL-60 cells injection), the animals were treated through the intraperitoneal route (200 µL per animal) once a day for 13 consecutive days. One day after the end of the treatment, the animals were anesthetized, and peripheral blood samples were collected from brachial artery. Animals were euthanized by anesthetic overdose, and tumors were excised and weighed.

[13] = Toxicological evaluation in xenograft mice; assay type: in vivo, C.B-17 SCID mice; settings: complex 1 20 and 40 mg/kg
Method: To assess toxicological aspects, mice were weighed at the beginning and at the end of the experiment as described previously by Rodrigues et al.[26]. […] Hematological analysis was performed using the Advia 60 hematology system (Bayer, Leverkusen, Germany). Livers, kidneys, lungs and hearts were removed, weighed and examined for any signs of macroscopic lesions, color changes and/or hemorrhages. After macroscopic examination, tumors, livers, kidneys, lungs and hearts were fixed in 4% formalin buffer and embedded in paraffin. Tissue sections were stained with hematoxylin/eosin staining, and a pathologist performed the histological analyses under optical microscopy.

HL-60 cells [14] = assay: Intracellular ruthenium quantification by energy dispersive X-ray spectrometer; assay type: cell-based, human; settings: HL-60, 3 h, 500 µM
Method: Intracellular ruthenium quantification in HL-60 cells was evaluated by energy dispersive X-ray spectrometer (EDS)[23]. Cells were fixed in sodium cacodylate buffer (0.1 M sodium cacodylate solution pH 7.4, plus 2.5% glutaraldehyde and 2% paraformaldehyde) for at least 2 h. After washing, cells were dehydrated in an acetone series and embedded in polybed epoxy resin (Polysciences; Warrington, PA). Ultrathin sections were examined under a JEM-1230 transmission electron microscope (TEM) integrated with an EDS microanalytics system (JEOL USA, Inc., Peabody, MA, USA).

[15] = 20 mg/kg intraperitoneal once a day for 13 consecutive days
[16] = 40 mg/kg intraperitoneal once a day for 13 consecutive days

Row | Compound | Selectivity index, B16-F10 versus MRC-5 (B16-F10 (mouse melanoma)) | Selectivity index, B16-F10 versus PBMC (B16-F10 (mouse melanoma)) | IC50 [1] [µM] | Selectivity index, HCT116 versus MRC-5 [2] | Selectivity index, HCT116 versus PBMC [2] | Selectivity index, HL-60 versus MRC-5 [3] | Selectivity index, HL-60 versus PBMC [3] | IC50 [3] [µM] | Selectivity index, HSC-3 versus MRC-5 [4] | Selectivity index, HSC-3 versus PBMC [4] | IC50 [4] [µM] | Selectivity index, HepG2 versus MRC-5 [5] | Selectivity index, HepG2 versus PBMC [5] | Selectivity index, K-562 versus MRC-5 [6] | Selectivity index, K-562 versus PBMC [6] | IC50 [7] [µM] | Selectivity index, SCC-4 versus MRC-5 [8] | Selectivity index, SCC-4 versus PBMC [8] | IC50 [9] [µM] | IC50 [10] [µM] | other results
1 | Cc1cc(=O)[nH]c(=S)[nH]1 [6-methyl-2-thiouracil] | – | – | – | – | – | – | – | – | – | – | – | – | – | – | – | – | – | – | – | – | IC50 (any cells): > 176 µM
2 | Cc1cc(=O)[nH]c([S][Ru]([S]c2nc(C)cc(=O)[nH]2)([PH](c2ccccc2)(c2ccccc2)c2ccccc2)[PH](c2ccccc2)(c2ccccc2)c2ccccc2)n1 [Complex 1, cis-[Ru(6m2tu)2(PPh3)2]] | 6.9 | 3.1 | 3.1 | 4.1 | 1.9 | 571 | 257 | 0.01 | 1.3 | 0.6 | 4.37 | 6 | 2.7 | 28.6 | 12.9 | 5.71 | 3.5 | 1.6 | 3.5 | 2.57 | Reduction of the number of viable cells (HL-60 cells [11]; HL-60, 12 h, 1 μM): no statistically significant reduction; Reduction of the number of viable cells (HL-60 cells [11]; HL-60, 12 h, 2 μM): 36.9%; Reduction of the number of viable cells (HL-60 cells [11]; HL-60, 24 h, 1 μM): 65.3%; Reduction of the number of viable cells (HL-60 cells [11]; HL-60, 24 h, 2 μM): 77.1%; Apoptosis (annexin V-FITC positive cells) (HL-60 cells [12]; HL-60, 12 h, 1 μM): no statistically significant apoptosis induction; Apoptosis (annexin V-FITC positive cells) (HL-60 cells [12]; HL-60, 12 h, 2 μM): 37.2%; Apoptosis (annexin V-FITC positive cells) (HL-60 cells [12]; HL-60, 24 h, 1 μM): 38.5%; Apoptosis (annexin V-FITC positive cells) (HL-60 cells [12]; HL-60, 24 h, 2 μM): 66.4%; Mean of tumor mass weight (HL-60 cell xenografts; [15]): 0.4 ± 0.1 g; Tumor mass inhibition rate (HL-60 cell xenografts; [15]): 73.1%; Mean of tumor mass weight (HL-60 cell xenografts; [16]): 0.3 ± 0.1 g; Tumor mass inhibition rate (HL-60 cell xenografts; [16]): 79.9%; Tumor histomorphological analysis (HL-60 cell xenografts; 20 and 40 mg, hematoxylin/eosin): areas with nodular/encapsulated growth and extracellular matrix formation were more evident; Liver histopathology [13]: focal areas of steatosis were observed; Kidney histopathology ([13]; doxorubicin 0.1 mg/kg): Coagulation necrosis was observed in renal tubules; Lung histopathology ([13]; doxorubicin 0.1 mg/kg): inflammation was more evident
3 | N.N.[Cl][Pt][Cl] [cisplatin] | – | – | – | – | – | – | – | – | – | – | – | – | – | – | – | – | – | – | – | – | Intracellular platinum (HL-60 cells [14]): able to quantify platinum
4 | O=C1[O][Pt]2([NH][C@@H]3CCCC[C@H]3[NH]2)[O]C1=O [oxaliplatin, reference compound] | – | – | – | – | – | – | – | – | – | – | – | – | – | – | – | 1.54 | – | – | – | 14.9 | IC50 (B16-F10 (mouse melanoma); alamar blue, 72 h, read-out: IC50 and 95% CI, B16-F10): 0.03 µM; Intracellular platinum (HL-60 cells [14]): able to quantify platinum
5 | [Ru(6m2tu)2(dppb)] [Complex 2] | 2.9 | 1.2 | 4.2 | 2.6 | 1.1 | 23.5 | 9.6 | 0.13 | 1.5 | 0.6 | 2.04 | 3.7 | 1.5 | 9 | 3.7 | 3.06 | 2.5 | 1 | 3.9 | 1.25 | Reduction of the number of viable cells (HL-60 cells [11]; HL-60, 12 h, 1 μM): no statistically significant reduction; Reduction of the number of viable cells (HL-60 cells [11]; HL-60, 12 h, 2 μM): 44.1%; Reduction of the number of viable cells (HL-60 cells [11]; HL-60, 24 h, 1 μM): 36.1%; Reduction of the number of viable cells (HL-60 cells [11]; HL-60, 24 h, 2 μM): 60.1%; Apoptosis (annexin V-FITC positive cells) (HL-60 cells [12]; HL-60, 12 h, 1 μM): no statistically significant apoptosis induction; Apoptosis (annexin V-FITC positive cells) (HL-60 cells [12]; HL-60, 12 h, 2 μM): 31.1%; Apoptosis (annexin V-FITC positive cells) (HL-60 cells [12]; HL-60, 24 h, 1 μM): 32.1%; Apoptosis (annexin V-FITC positive cells) (HL-60 cells [12]; HL-60, 24 h, 2 μM): 55.9%
